The compounds below were run against T1, Met kinase (Homo sapiens, UniProt P08581) (assay: Met kinase inhibition (enzyme assay), flashplate method). Conditions: not given.
T1 construct: 6His (N); purchased Upstate 14-526; host or cells: Sf21 insect cells (S. frugiperda), baculovirus
Type: biochemical
From the text: According to the manufacturer's data (Met, active, upstate, catalogue No. 14-526), Met kinase is expressed for the purposes of protein production in insect cells (Sf21; S. frugiperda) and subsequent affinity-chromatographic purification as “N-terminal 6His-tagged” recombinant human protein in a baculovirus expression vector.
The test plates used are 96-well Flashplate® microtitre plates from Perkin Elmer (Cat. No. SMP200). The components of the kinase reaction described below are pipetted into the assay plate. The Met kinase and the substrate poly Ala-Glu-Lys-Tyr, (pAGLT, 6:2:5:1), are incubated for 3 hrs at room temperature with radioactively labelled ^33P-ATP in the presence and absence of test substances in a total volume of 100 μl. The reaction is terminated using 150 μl of a 60 mM EDTA solution. After incubation for a further 30 min at room temperature, the supernatants are filtered off with suction, and the wells are washed three times with 200 μl of 0.9% NaCl solution each time. The measurement of the bound radioactivity is carried out by means of a scintillation measuring instrument (Topcount NXT, Perkin-Elmer).
The full value used is the inhibitor-free kinase reaction. This should be approximately in the range 6000-9000 cpm. The pharmacological zero value used is staurosporin in a final concentration of 0.1 mM. The inhibitory values (IC50) are determined using the RS1_MTS program.
Kinase Reaction Conditions Per Well:
10 μl of substance to be tested in assay buffer with 10% of DMSO
10 μl of ATP (final concentration 1 μM cold, 0.35 μCi of ^33P-ATP)
50 μl of Met kinase/substrate mixture in assay buffer;
• (10 ng of enzyme/well, 50 ng of pAGLT/well)
50 mM HEPES • 3 mM magnesium chloride • 3 μM sodium orthovanadate • 3 mM manganese(II) chloride • 1 mM dithiothreitol (DTT) pH=7.5 (to be set using sodium hydroxide)
60 mM Titriplex III (EDTA) • ^33P-ATP: Perkin-Elmer; • Met kinase: Upstate, Cat. No. 14-526, Stock 1 μg/10 μl; spec. activity 954 U/mg; • Poly-Ala-Glu-Lys-Tyr, 6:2:5:1: Sigma Cat. No. P1152 In-Vivo Tests (FIG. 1/1) Experimental Procedure: […]

T1 sequence (P08581 956-1390 limits assumed): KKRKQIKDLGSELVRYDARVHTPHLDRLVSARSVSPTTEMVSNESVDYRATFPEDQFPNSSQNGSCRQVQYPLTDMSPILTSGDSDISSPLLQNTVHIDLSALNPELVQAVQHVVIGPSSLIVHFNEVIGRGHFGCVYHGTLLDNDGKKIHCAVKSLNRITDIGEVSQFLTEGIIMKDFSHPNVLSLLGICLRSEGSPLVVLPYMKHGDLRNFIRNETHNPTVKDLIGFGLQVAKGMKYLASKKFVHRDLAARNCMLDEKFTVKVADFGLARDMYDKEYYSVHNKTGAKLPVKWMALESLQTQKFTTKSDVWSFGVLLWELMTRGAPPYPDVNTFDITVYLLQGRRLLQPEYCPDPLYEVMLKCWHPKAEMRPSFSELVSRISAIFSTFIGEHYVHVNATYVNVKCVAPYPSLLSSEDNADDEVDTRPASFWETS

| IC50 [nM] | SMILES |
| --- | --- |
| 10 to 1000 | CCOC(=O)Nc1cccc(Cn2nc(-c3ccc(OCCN4CCOCC4)cc3)ccc2=O)c1 [Compound A1] |
| 10 to 1000 | CCOC(=O)Nc1cccc(Cn2nc(-c3ccc(OCCCO)cc3)ccc2=O)c1 [Compound A2] |
| 10 to 1000 | CCOC(=O)Nc1cccc(Cn2nc(-c3ccc(OCCCN(C)C)cc3)ccc2=O)c1 [Compound A3] |
| 10 to 1000 | CCOC(=O)Nc1cccc(Cn2nc(-c3ccc(OCCCCCNC(=O)OC(C)(C)C)cc3)ccc2=O)c1 [Compound A4] |
| 10 to 1000 | CCOC(=O)Nc1cccc(Cn2nc(-c3ccc(OCCOC)cc3)ccc2=O)c1 [Compound A5] |
| 10 to 1000 | CCOC(=O)Nc1cccc(Cn2nc(-c3ccc(OCCNC(=O)OC(C)(C)C)cc3)ccc2=O)c1 [Compound A6] |
| 10 to 1000 | CCOC(=O)Nc1cccc(Cn2nc(-c3ccc(OCCCCOC)cc3)ccc2=O)c1 [Compound A7] |
| 10 to 1000 | CCOC(=O)Nc1cccc(Cn2nc(-c3ccc(OCCN(C)C)cc3)ccc2=O)c1 [Compound A8] |
| 10 to 1000 | CCOC(=O)Nc1cccc(Cn2nc(-c3ccc(OCCO)cc3)ccc2=O)c1 [Compound A9] |
| 10 to 1000 | CCOC(=O)Nc1cccc(Cn2nc(-c3ccc(OCCCCO)cc3)ccc2=O)c1 [Compound A10] |
| 10 to 1000 | CCOC(=O)Nc1cccc(Cn2nc(-c3ccc(OCCCOC)cc3)ccc2=O)c1 [Compound A11] |
| 10 to 1000 | CCOC(=O)Nc1cccc(Cn2nc(-c3ccc(OCCCCNC(=O)OC(C)(C)C)cc3)ccc2=O)c1 [Compound A12] |
| 10 to 1000 | CCOC(=O)Nc1cccc(Cn2nc(-c3ccc(OCCN(C(C)C)C(C)C)cc3)ccc2=O)c1 [Compound A13] |
| 10 to 1000 | CCOC(=O)Nc1cccc(Cn2nc(-c3ccc(OCC(=O)N(C)C)cc3)ccc2=O)c1 [Compound A14] |
| 10 to 1000 | CCOC(=O)Nc1cccc(Cn2nc(-c3ccc(OC4CCCN(CC)C4)cc3)ccc2=O)c1 (stereo not shown) [Compound A15] |
| 10 to 1000 | CCOC(=O)Nc1cccc(Cn2nc(-c3ccc(OCCCN4CCCCC4)cc3)ccc2=O)c1 [Compound A16] |
| 10 to 1000 | CCOC(=O)Nc1cccc(Cn2nc(-c3ccc(OCCC4CCCN4C)cc3)ccc2=O)c1 (stereo not shown) [Compound A17] |
| 10 to 1000 | CCOC(=O)Nc1cccc(Cn2nc(-c3ccc(OCC(C)CN4CCOCC4)cc3)ccc2=O)c1 (stereo not shown) [Compound A18] |
| 10 to 1000 | CCOC(=O)Nc1cccc(Cn2nc(-c3cccc(OCCCO)c3)ccc2=O)c1 [Compound A19] |
| 10 to 1000 | CCOC(=O)Nc1cccc(Cn2nc(-c3cccc(OCCCCOC)c3)ccc2=O)c1 [Compound A20] |
| 10 to 1000 | CCOC(=O)Nc1cccc(Cn2nc(-c3cccc(OCCOC)c3)ccc2=O)c1 [Compound A21] |
| 10 to 1000 | CCOC(=O)Nc1cccc(Cn2nc(-c3cccc(OCCCCO)c3)ccc2=O)c1 [Compound A22] |
| 10 to 1000 | CCOC(=O)Nc1cccc(Cn2nc(-c3cccc(OCCCCNC(=O)OC(C)(C)C)c3)ccc2=O)c1 [Compound A23] |

| IC50 [nM] | SMILES |
| --- | --- |
| 10 to 1000 | CCOC(=O)Nc1cccc(Cn2nc(-c3cccc(OCCN4CCOCC4)c3)ccc2=O)c1 [Compound A24] |
| 10 to 1000 | CCOC(=O)Nc1cccc(Cn2nc(-c3cccc(OCCCOC)c3)ccc2=O)c1 [Compound A25] |
| 10 to 1000 | CCOC(=O)Nc1cccc(Cn2nc(-c3cccc(OCCNC(=O)OC(C)(C)C)c3)ccc2=O)c1 [Compound A26] |
| 10 to 1000 | CCOC(=O)Nc1cccc(Cn2nc(-c3cc(F)c(OCCCN(C)C)c(F)c3)ccc2=O)c1 [Compound A27] |
| 10 to 1000 | CCOC(=O)Nc1cccc(Cn2nc(-c3cc(F)c(OCCCN4CCOCC4=O)c(F)c3)ccc2=O)c1 [Compound A28] |
| 10 to 1000 | CCOC(=O)Nc1cccc(Cn2nc(-c3cc(F)c(OCCCNC)c(F)c3)ccc2=O)c1 [Compound A29a] |
| 10 to 1000 | CCOC(=O)Nc1cccc(Cn2nc(-c3cc(F)c(OCCCCCNC(=O)OC(C)(C)C)c(F)c3)ccc2=O)c1 [Compound A31] |
| 10 to 1000 | CCOC(=O)Nc1cccc(Cn2nc(-c3cc(F)c(OCCN(C)C)c(F)c3)ccc2=O)c1 [Compound A33] |
| 10 to 1000 | CCOC(=O)Nc1cccc(Cn2nc(-c3cc(F)c(OCCOC)c(F)c3)ccc2=O)c1 [Compound A34] |
| 10 to 1000 | CCOC(=O)Nc1cccc(Cn2nc(-c3cc(F)c(OCCCCO)c(F)c3)ccc2=O)c1 [Compound A35] |
| 10 to 1000 | CCOC(=O)Nc1cccc(Cn2nc(-c3cc(F)c(OCCCOC)c(F)c3)ccc2=O)c1 [Compound A37] |
| 10 to 1000 | CCOC(=O)Nc1cccc(Cn2nc(-c3cc(F)c(OCCCO)c(F)c3)ccc2=O)c1 [Compound A38] |
| 10 to 1000 | CCOC(=O)Nc1cccc(Cn2nc(-c3cc(F)c(OCCCN4CCCC4)c(F)c3)ccc2=O)c1 [Compound A43] |
| 10 to 1000 | CCOC(=O)Nc1cccc(Cn2nc(-c3ccc(OCCCCCN)cc3)ccc2=O)c1 [Compound A44] |
| 10 to 1000 | CCOC(=O)Nc1cccc(Cn2nc(-c3cc(F)c(OCCN)c(F)c3)ccc2=O)c1 [Compound A45] |
| 10 to 1000 | CCOC(=O)Nc1cccc(Cn2nc(-c3ccc(OCCN)cc3)ccc2=O)c1 [Compound A48] |
| 10 to 1000 | CCOC(=O)Nc1cccc(Cn2nc(-c3cccc(OCCCCN)c3)ccc2=O)c1 [Compound A49] |
| 10 to 1000 | CCOC(=O)Nc1cccc(Cn2nc(-c3ccc(OCCCCN)cc3)ccc2=O)c1 [Compound A50] |
| 10 to 1000 | CCOC(=O)Nc1cccc(Cn2nc(-c3cc(F)c(OCCCCCN)c(F)c3)ccc2=O)c1 [Compound A52] |
| 10 to 1000 | CCOC(=O)Nc1cccc(Cn2nc(-c3cc(F)c(OCCCN)c(F)c3)ccc2=O)c1 [Compound A53] |
| 10 to 1000 | CN(C)CCCOc1c(F)cc(-c2ccc(=O)n(Cc3ccc4[nH]c(=O)[nH]c4c3)n2)cc1F [Compound A55, 5-{3-[4-(3-dimethylaminopropoxy)-3,5-difluorophenyl]-6-oxo-6H-pyridazin-1-ylmethyl}-1,3-dihydrobenzimidazol-2-one] |
| 10 to 1000 | CN1CCN(CCCOc2c(F)cc(-c3ccc(=O)n(Cc4ccc5[nH]c(=O)[nH]c5c4)n3)cc2F)CC1 [Compound A56, 5-(3-{3,5-difluoro-4-[3-(4-methylpiperazin-1-yl)propoxy]-phenyl}-6-oxo-6H-pyridazin-1-ylmethyl)-1,3-dihydrobenzimidazol-2-one] |

What follows are compounds tested on TPR-Met/NIH3T3 cells (assay: In-vivo test, TPR-Met/NIH3T3 tumour model in mice). Conditions: 200 mg/kg daily by gastric tube, 9 days; tumour volume; female Balb/C mice, s.c. TPR-Met/NIH3T3 cells.
Experimental: Female Balb/C mice (breeder: Charles River Wiga) were 5 weeks old on arrival. They were acclimatised to our keeping conditions for 7 days. Each mouse was subsequently injected subcutaneously in the pelvic area with 4 million TPR-Met/NIH3T3 cells in 100 μl of PBS (without Ca++ and Mg++). […] 100 μl of vehicle (0.25% methylcellulose/100 mM acetate buffer, pH 5.5) were administered daily to the control group, and 200 mg/kg of “A56” or “A91” dissolved in the vehicle (volume likewise 100 μl/animal) were administered daily to the treatment groups, in each case by gastric tube.
The length (L) and breadth (B) were measured using a Vernier calliper, and the tumour volume was calculated from the formula L×B×B/2.
4 or 5 animals per cage, feeding with commercial mouse food (Sniff).

| SMILES | antitumoural action |
| --- | --- |
| CN1CCN(CCCOc2c(F)cc(-c3ccc(=O)n(Cc4ccc5[nH]c(=O)[nH]c5c4)n3)cc2F)CC1 [Compound A56, 5-(3-{3,5-difluoro-4-[3-(4-methylpiperazin-1-yl)propoxy]-phenyl}-6-oxo-6H-pyridazin-1-ylmethyl)-1,3-dihydrobenzimidazol-2-one] | significant antitumoural action |

Source: patent US8445489B2, “Aryl ether pyridazinone derivatives” (Merck Patent GmbH, priority 2007, dated 2013)
